# Results as given in patent US20170319562A1, “Compositions and Methods for Extended Therapy with Aminopyridines” (Acorda Therapeutics, Inc., priority 2009, published 2017).
# Read-outs that look alike come from different tables or passages of the source.
# Columns and labels:
# [1] = system: patients with multiple sclerosis; assay: Pooled analysis of MS-F202, MS-F203 and MS-F204; format: in vivo, human; conditions: Timed-Walk Responders
# Description: The primary efficacy variable was analyzed by comparing 4-aminopyridine-SR 10 mg b.i.d., the now FDA-approved clinical dose, to placebo with respect to the proportion of patients with consistent improvements in walking speed (Timed-Walk Responders).
# A set of post-hoc analyses using a traditional definition of response based on threshold change was performed to provide additional evidence of the robustness of the primary analyses using the Timed-Walk Responder criterion. For these analyses, a patient was defined as a “% Responder” at various thresholds of response (at average increases in walking speed during the treatment period of at least 10%, 20%, etc. up to 60% from baseline). Fisher's Exact test was used to compare 4-aminopyridine to placebo for each study and for the pooled analysis.
# DesignAVIethods: All patients from MS-F202, MS-F203 and MS-F204 were included in a pooled analysis. Patients with clinically definite multiple sclerosis were randomized to 4-aminopyridine-SR 10 mg bid or placebo for up to 14 weeks. The primary efficacy variable was defined as a faster walking speed on the Timed 25-Foot Walk (T25FW) for at least 3 of 4 double-blind efficacy visits compared with the maximum walking speed on any of 5 off-treatment visits, and was determined prospectively for MS-F203 and MS-F204 and retrospectively in MS-F202. The average Walking Speed (“WS”) over four baseline and four treatment visits were compared by treatment and TWR status.
# All patients from MS-F202, MS-F203 and MS-F204 were included in a pooled analysis. Patients with clinically definite multiple sclerosis were randomized to 4-aminopyridine-SR 10 mg bid or placebo for up to 14 weeks. The primary efficacy variable was defined as a faster walking speed on the Timed 25-Foot Walk (T25FW) for at least 3 of 4 double-blind efficacy visits compared with the maximum walking speed on any of 5 off-treatment visits, and was determined prospectively for MS-F203 and MS-F204 and retrospectively in MS-F202.
# Methods: Data for patients who received the therapeutic dose of 4-aminopyridine-SR, 10mg bid, in three randomized controlled trials (MS-F202, MS-F203, and MS-F204) were pooled (n=394) and compared to placebo (n=237). Comparative analyses were based on the percent change from baseline in WS using the timed 25-foot walk. […] The percent change in WS for the pooled populations for each double-blind visit was evaluated by time interval to account for differences in study schedules (Days 1-21, 22-49, 50-77, and 78-end of double-blind phase). The percent changes were analyzed with analysis of variance with effects for treatment group, study, and site within study.
# [2] = system: patients with multiple sclerosis; assay: MS-F204EXT open-label extension study; format: in vivo, human; conditions: cut-off Jul. 31, 2008
# Description: (§1) Data were presented by study pair (parent and extension).
# In the MS-F204EXT study, which allowed patients to enroll directly from the parent study MS-F204, open label 4-aminopyridine-SR 10 mg b.i.d. was dispensed at visit 0 (a separate screening visit was only required if the screening visit could not be combined with the Final visit for MS-F204); visit 1 was scheduled to occur two weeks after screening visit (or visit 0), visit 2 at 12 weeks after visit 1, visit 3 at 12 weeks after visit 2. The planned interval between subsequent visits was 26 weeks. Therefore, at visit 4, a patient should have been on 4-aminopyridine-SR treatment for approximately one year.
# (§2) This Example considers efficacy data collected from the three ongoing, open label extension studies (MS-F202EXT, MS-F203EXT, MS-F204EXT). The primary focus was the Timed 25-Foot Walk, assessed in a manner consistent with its evaluation in the parent double-blind studies. This included the determination of response to treatment using a criterion equivalent to the Timed Walk Response criterion used in the parent studies. […] The clinical meaningfulness of this criterion was evaluated in terms of the Subject and Clinician Global Impression scores recorded during the extension studies.
# (§3) In the extension studies, a “Timed Walk Extension Responder” was defined as a patient who achieved a faster walking speed on the T25FW for the majority of on-drug treatment visits during the first year of the study (Visits 1-4 for MS-F203EXT and MS-F204EXT) than the maximum walking speed previously measured for the patient during any off-drug visits in either the parent study or in the extension study.
# [3] = system: patients with multiple sclerosis; assay: MS-F202EXT open-label extension study; format: in vivo, human; conditions: for patients classified as Extension Timed Walk Responders: cut-off Jul. 31, 2008
# Description: as §1
# In the MS-F202EXT study, which started recruiting patients several months after the completion of the parent study, patients were required to undergo a screening visit prior to dispensing of open-label 4-aminopyridine-SR. The study began with the potential to titrate the dose upward to a maximum of 20 mg b.i.d. with titration visits at weekly intervals. A number of protocol amendments decreased the maximum dose to 15 and then to 10 mg b.i.d. and changed the planned visit intervals, but in the current amended protocol, both the dose (10 mg b.i.d.) and the interval between visits (26 weeks) has been made consistent with MS-F203EXT.
# as §2, §3
# [4] = Pharmacokinetics after i.v. and p.o. 4-aminopyridine (2 mg/kg) in rats; conditions: single p.o. 2 mg/kg
# Description: Distribution: The volume of distribution at steady state (Vdss) in rats has been reported to approximate total body volume (not adjusted for bioavailability).
# [5] = cited from earlier work; for bioavailability: AUC(0-∞) i.v. vs p.o. 2 mg/kg
# [6] = parent-study treated Timed Walk Non-Responders
# [7] = parent-study treated Timed Walk Responders
# [8] = placebo-treated in parent study
smiles,measurement,setting,value
Nc1ccncc1 [4-aminopyridine],double-blind average percent change from baseline in walking speed,[1]; average improvement,24%
same,average increase in walking speed by time from last dose,[1]; dose interval 9-10 hrs,25%
same,average increase in walking speed by time from last dose,[1]; dose interval 10-11 hrs,24%
same,average increase in walking speed by time from last dose,[1]; dose interval 11-12 hrs,20%
same,patients classified as Extension Timed Walk Responders,[2]; all patients,49.3%
same,patients classified as Extension Timed Walk Responders,[2]; [6],30.0%
same,patients classified as Extension Timed Walk Responders,[2]; [7],71.4%
same,patients classified as Extension Timed Walk Responders,[2]; [8],50.0%
same,patients classified as Extension Timed Walk Responders,[3]; all patients,15.7%
same,Extension Timed Walk Response rate within year,"[3]; double-blind Non-Responders, year 1",11.1%
same,Extension Timed Walk Response rate within year,"[3]; double-blind Non-Responders, year 2",5.2%
same,Extension Timed Walk Response rate within year,"[3]; double-blind Non-Responders, year 3",6.1%
same,Extension Timed Walk Response rate within year,"[3]; double-blind Responders, year 1",25.6%
same,Extension Timed Walk Response rate within year,"[3]; double-blind Responders, year 2",23.1%
same,Extension Timed Walk Response rate within year,"[3]; double-blind Responders, year 3",22.2%
same,patients classified as Extension Timed Walk Responders,[3]; [6],9.5%
same,patients classified as Extension Timed Walk Responders,[3]; [7],25.6%
same,Extension Timed Walk Response rate within year,"[3]; placebo treated in parent study, year 1",17.9%
same,Extension Timed Walk Response rate within year,"[3]; placebo treated in parent study, year 2",4.6%
same,Extension Timed Walk Response rate within year,"[3]; placebo treated in parent study, year 3",5.3%
same,patients classified as Extension Timed Walk Responders,[3]; [8],14.3%
same,Vdss lower in females than in males,[4],13%
same,bioavailability,[5]; female rats,~55%
same,bioavailability,[5]; male rats,approximately 66.5%
same,peak plasma concentrations lower in females than in males,[5]; oral administration,38%
